These results are taken from patent US4172148A, “Ruminant feeds containing trichloroethyl esters of essential amino acids” (E. R. Squibb & Sons, Inc., priority 1978, dated 1979).

For assay [1], the system named is volatile fatty acid concentrations in the in vitro rumen fermentation. Put plainly: in vitro rumen fermentation, volatile fatty acids, alfalfa hay:concentrate 3:1 (Examples 3 and 12). Set-up: species or system sheep. The note with it: 0.2 mg/ml; 6 h, 39° C. As to the method:
(§1) A one gram sample of substrate ground through a 1 mm screen is weighed into 100 ml. lipless beakers equipped with gas-release valves. The substrate consists of alfalfa hay containing approximately 16% protein and a concentrate containing ground corn 60.7%, alfalfa meal 17.5%, molasses 10.0%, soybean meal 5.3%, wheat bran 5.0%, trace mineralized salt 1.0%, limestone 0.5% and Vitamin D 300,000 I.U./ton, mixed in the proportion 3:1. The experimental composition is added to the substrate. 25 ml. of filtered rumen fluid obtained from fasted sheep maintained on feed the same as the above mentioned substrate and 25 ml. of McDougal's buffer solution serve as the inoculum. The buffer solution is as follows:
(§2) The fermentation mixture is flushed with carbon dioxide and the vessel is capped with a gas release valve. The fermentation vessel (beaker) is placed in a water bath and incubated at 39° C.±1° for six hours. The sample is mixed every hour by shaking the beaker.
(§3) At the end of the 6-hour fermentation period the sample is strained through 4 layers of cheesecloth into a sample bottle containing 1 ml. saturated solution of mercuric chloride. The sample is frozen immediately until analyzed for the volatile fatty acids (VFA) (mg/100 ml.). Prior to analysis, each sample is acidified with 30% phosphoric acid and then analyzed by gas chromatography using a column containing 5% nonylphenoxypolyoxyethylene ethanol plus 0.5% phosphoric acid on 100-120 mesh Gas Chrom S. The acids determined are acetic, propionic, butyric, isobutyric, valeric and isovaleric acids. Total VFA is considered as the addition of these acids. The ratio of acetic: propionic (A:P) is obtained by dividing the concentration of acetic acid by that of propionic acid.
The effect of various compounds alone on the volatile fatty acid concentrations was determined by the procedure of Example 3. […] A direct comparison between phenylalanine and phenylalanine trichloroethyl ester is provided.

The test system is the same in assay [2]. The experiment in a line: in vitro rumen fermentation, volatile fatty acids, high concentrate substrate, alfalfa hay:concentrate 1:3 (Examples 4 and 7). Set-up: species or system sheep. The note with it: for Acetic acid / Acetic:propionic / Butyric acid / Propionic acid / Total acids: hay:concentrate 1:3. Here is the method: as §1, §2, §3
The procedure is described in Example 3. In this example, however, the substrate consisted of alfalfa hay and concentrate in the ratio of 1:3 and inoculum was obtained from sheep fed alfalfa and concentrate in the ratio of 1:3. The concentrate (Fit-N-Fresh) is commercially available from Agway, Inc. and contains grain products, plant protein products, processed grain by-products, cane molasses, minerals, vitamins and a preservative.
The 2,2,2-trichloroethyl ester of glycine was tested in vitro in a manner similar to that described in Example 4.

Assay [3] relates to volatile fatty acid concentrations in fistulated sheep. The experiment in a line: volatile fatty acid concentrations in vivo in fistulated sheep, 227 g concentrate and 680 g alfalfa hay (Examples 5 and 8). The text has this:
Mature sheep (wethers) fitted with permanent rumen fistulae were used to determine the effect of L-phenylalanine, 2,2,2-trichloroethyl ester on volatile fatty acid concentrations in vivo (3 wethers per treatment). The animals were individually penned and fed 227 g. of concentrate (described in Example 3) and 680 g. of alfalfa hay once daily. The test compound was admixed with the concentrate. The sheep were medicated for 7 days. Samples for analysis were obtained before (Day 0) and after treatment (Day 7) approximately 6 hours after feeding.

Another assay deals with growing lambs. The experiment in a line: body weight gain and feed efficiency of growing lambs (Examples 9-11). In kind it is in vivo, lambs (sheep). The note with it: 0.0044% (40 g/ton) in feed. As to the method:
A test was conducted to determine if feeding L-phenylalanine, 2,2,2-trichloroethyl ester to growing lambs was effective in improving growth and feed efficiency. Wether and ewe lambs were divided into groups of 30 lambs each. They were acclimated to their pens for 2 weeks prior to treatment.
The feed supplied to the animals had the following composition
The test compound in an amount of 0.0055% (50 g/ton) was admixed with the above feed composition.
Body weights and feed consumption were recorded at 0, 2, 4 and 6 weeks. Feed efficiencies were calculated.
The test procedure of Example 9 was followed to test the growth effect and feed efficiency of glycine 2,2,2-trichloroethyl ester on growing lambs. The feed composition of Example 9 was used but contained glycine 2,2,2-trichloroethyl ester in an amount of 0.0044% (40 g/ton). There were 44 lambs in the control group receiving the feed composition without additive and 42 lambs receiving the feed composition containing the amino acid ester.
The test procedure of Example 9 was followed to test the growth effect and feed efficiency of L-phenylalanine 2,2,2-trichloroethyl ester on growing lambs. The feed composition of Example 9 was used but contained 0.0088% (80 g/ton) of this amino acid ester. There were 59 lambs in the control group fed the feed without additive and 58 lambs in the group fed the feed composition containing the test compound.

Regarding `O=CC(Cl)(Cl)Cl` [choral, reference compound], in assay [1], the Acetic acid is on record as 88 % of control, the “Acetic:propionic” value is reported as 80 % of control, the Butyric acid is listed as 110 % of control and the Propionic acid was 110 % of control. In addition, in assay [1], the Total acids is listed as 96 % of control.
For `N[C@@H](Cc1ccc(Cl)cc1)C(=O)O` (racemic) [p-chlorophenylalanine, reference compound], in assay [1], the Acetic acid was 91 % of control, the “Acetic:propionic” value was 101 % of control, the Butyric acid was 92 % of control and the Propionic acid is 91 % of control. For the same molecule, in assay [1], the Total acids was 91 % of control.
As for `N[C@@H](Cc1ccccc1)C(=O)O` [L-phenylalanine, reference compound], in assay [1], the Acetic acid was 95 % of control, the “Acetic:propionic” value is 100 % of control, the Butyric acid is given as 97 % of control and the Propionic acid is given as 94 % of control. In addition, in assay [1], the Total acids is recorded as 96 % of control.
For the molecule `Br.NCC(=O)OCC(Cl)(Cl)Cl` [2,2,2-trichloroethyl ester of glycine, aminoacetic acid 2,2,2-trichloroethyl ester, hydrobromide], in assay [2] (0.2 mg/ml), the Acetic acid is reported as 79 % of control, the “Acetic:propionic” value is 64 % of control, the Butyric acid was 119 % of control and the Propionic acid is reported as 123 % of control. In assay [2] (0.2 mg/ml), the Total acids is listed as 98 % of control. For the same molecule, in assay [2] (0.4 mg/ml), the Acetic acid is listed as 79 % of control, the “Acetic:propionic” value is 64 % of control, the Butyric acid is 119 % of control and the Propionic acid is listed as 123 % of control. Also, in assay [2] (0.4 mg/ml), the Total acids was 98 % of control. For the same molecule, in assay [2] (high concentrate substrate), the “effect on acetic:propionic ratio (in words)” value is reported as “decreasing the acetic:propionic ratio” and the “effect on propionic acid concentration (in words)” value was “effective in increasing propionic acid concentration”. Also, in assay [3] (Example 8, 500 mg/head/day, treatment, pre-treatment 3.36, control treatment 3.38), the “Acetic:propionic ratio” value worked out at 2.86. Further, the “Other acids (%)” value in assay [3] (Example 8, 500 mg/head/day, treatment, pre-treatment 6.1, control treatment 4.2) turned out to be 6.6%. Further, the “Butyric acid (%)” value in assay [3] (Example 8, 500 mg/head/day, treatment, pre-treatment 15.1, control treatment 14.6) was determined as 17.9%. Besides, in assay [3] (Example 8, 500 mg/head/day, treatment, pre-treatment 18.1, control treatment 18.6), the “Propionic acid (%)” value is listed as 19.6%. Also, in assay [3] (Example 8, 500 mg/head/day, treatment, pre-treatment 60.8, control treatment 62.7), the “Acetic acid (%)” value was 56.0%. The Total acid in assay [3] (Example 8, 500 mg/head/day, treatment, pre-treatment 715, control treatment 678) is recorded as 731 mg/100 ml. Moreover, in assay [3] (fistulated sheep, 7 days), the “effect on acetic:propionic ratio (in words)” value is listed as “decreasing the acetic:propionic ratio” and the “effect on proportion of propionic acid (in words)” value was “effective in increasing the proportion of propionic acid”. This molecule came in with a Weight gain in the assay on growing lambs (0-2 wks, control 2.32) of 2.31 kg. The molecule also displayed a Weight gain with growing lambs (0-4 wks, control 5.09) of 5.13 kg. For the same molecule, the Feed efficiency with growing lambs (0-6 wks, control 0.148) is 0.154 gain/feed. The molecule further yielded a Weight gain in the assay with growing lambs (0-6 wks, control 7.18) of 7.37 kg.
